Assay results taken from patent US12458678B2, “Composition for preventing or treating prostatic hyperplasia comprising mixed extracts of Curcumae radix and Syzygii flos” (UNIVERSITY-INDUSTRY COOPERATION GROUP OF KYUNG HEE …, priority 2019, dated 2025).

What was measured:
[1] = tested on: benign prostatic hyperplasia animal model; experiment: Prostate tissue weight and prostate index in TP-induced benign prostatic hyperplasia rats; assay type: in vivo, Sprague-Dawley (SD) rats; details: FIG. 2 upper
Experimental: For the benign prostatic hyperplasia animal model, 12-week-old male Sprague-Dawley (SD) rats (200±20 g) were purchased and tested from Daehan Biolink (Eumseong, Korea). After an acclimatization period for 1 week before the start of the experiment, feed and water were freely ingested for 6 weeks during the experiment. In an environment in which the light was controlled at intervals of 12 hours, the indoor temperature was 23±2° C., and the humidity was maintained at 70%. To induce benign prostatic hyperplasia, rats were divided into four groups, and six animals were randomly assigned to each group. Three groups among them were injected with TP (5 mg/kg/day) into the groin for 4 weeks, and one group, a normal control group, was injected with the same amount of ethanol. After induction of benign prostatic hyperplasia for 4 weeks, the experiment was performed by various treatment as follows: (i) a normal control group injected with ethanol for an additional four weeks (NC group); (ii) a disease control group injected with TP for an additional four weeks (benign prostatic hyperplasia, BPH group); […] In addition, in order to correct the difference in tissue weight according to body weight, the prostate index was calculated by dividing the weight of the prostate in mg with respect to 100 g of body weight.

[2] = tested on: prostate epithelial cells; experiment: H&E staining of prostate tissue, prostate epithelial cell thickness; assay type: in vivo, Sprague-Dawley (SD) rats; details: TP-induced BPH rats, FIG. 3B
Experimental: To induce benign prostatic hyperplasia, rats were divided into four groups, and six animals were randomly assigned to each group. Three groups among them were injected with TP (5 mg/kg/day) into the groin for 4 weeks, and one group, a normal control group, was injected with the same amount of ethanol. After induction of benign prostatic hyperplasia for 4 weeks, the experiment was performed by various treatment as follows: (i) a normal control group injected with ethanol for an additional four weeks (NC group); (ii) a disease control group injected with TP for an additional four weeks (benign prostatic hyperplasia, BPH group); […] Prostate samples fixed in paraffin were cut to a thickness of 4 μm. […] Tissue sections were treated in 150 μl of 0.1% trypsin working solution (composition: trypsin 0.4 ml, calcium 0.01 g, chloride 0.01 g in D.W. 7 ml) for 15 minutes, and then blocked using fetal bovine serum (FBS). For H&E staining, the cut tissue was immersed in hematoxylin solution for 5 minutes, distilled water for 5 minutes, and eosin solution for 30 seconds, and then dried and fixed. The slides were observed using an Olympus IX71 Research Inverted Phase microscope (Olympus Co., Tokyo, Japan), and the density was measured using ImageJ 1.47v software (National Institute of Health, MD, USA).

[3] = tested on: dihydrotestosterone (DHT); experiment: Dihydrotestosterone (DHT) assay by ELISA in BPH rats; assay type: in vivo, Sprague-Dawley (SD) rats; details: Example 11.1, FIG. 11; comparison with finasteride
[4] = tested on: prostate specific antigen (PSA); experiment: Prostate specific antigen expression in prostate tissue, Western blot; assay type: in vivo, Sprague-Dawley (SD) rats; details: Example 11.2, FIG. 12; comparison with finasteride
[5] = tested on: proliferating cell nuclear antigen (PCNA); experiment: PCNA expression in prostate tissue, Western blot; assay type: in vivo, Sprague-Dawley (SD) rats; details: Example 11.4, FIG. 14; comparison with finasteride
[6] = tested on: cyclin B1; experiment: Cyclin B1 expression in prostate tissue, Western blot; assay type: in vivo, Sprague-Dawley (SD) rats; details: Example 11.5, FIG. 15; comparison with finasteride
[7] = tested on: sperm count in the epididymis; experiment: Analysis of sperm count in epididymis; assay type: in vivo, SD rats; details: cauda epididymis of BPH rats; FIG. 17
Experimental: After excision of cauda epididymis from […] SD rats, it was cut into small pieces twice. Then, they were immersed in 4 ml of PBS for 1 hour to cause the sperm to spread into the PBS solution. After mixing PBS containing sperm with the same amount of methanol, they were observed using a hematocytometer and an Olympus IX71 Research Inverted Phase microscope (Olympus Co., Tokyo, Japan).
In order to check the sperm count, after excision of the cauda epididymis of the SD rat group used in the above-mentioned Examples, it was cut into small pieces twice. Then, they were placed in 4 ml of PBS for 1 hour to allow the sperm to spread into the PBS solution. After mixing PBS containing sperm with the same amount of methanol, they were observed using a hematocytometer and an Olympus IX71 Research Inverted Phase microscope.

## CC(C)(C)NC(=O)[C@H]1CC[C@H]2[C@@H]3CC[C@H]4NC(=O)C=C[C@]4(C)[C@H]3CC[C@]12C [finasteride]
[1]; TP-induced BPH rats, UM-002 50 mg/kg/day or finasteride 1 mg/kg/day for 4 weeks, BPH group 1.73 g, NC group 0.73 g
  average prostate weight: 0.93 g
[1]; vs BPH group 1.73 g
  prostate weight lower than that of the BPH group: 54%
[2]; BPH group 12.06 μm, NC group 9.68 μm
  thickness of prostate epithelial cells: 9.38 μm
[2]
  prostate epithelial cell thickness reduced compared to the BPH group: 22%
[3]
  DHT expression inhibited based on the BPH group: 77%
[4]
  PSA expression inhibited based on the BPH group: 55%
[5]
  PCNA expression inhibited based on the BPH group: 45%
[6]
  cyclin B1 expression inhibited based on the BPH group: 41%
[7]
  sperm count compared to the NC group: 56%
